Laboratory results taken from ChEMBL document CHEMBL5465560, “Selectivity Literature for EUbOPEN Chemogenomic Library” (2024).

Tests used:
[1] = molecular target: Phosphatidylinositol 4-phosphate 5-kinase type-1 alpha (Homo sapiens) (UniProt Q99755); details: at 10 µM
[2] = molecular target: STE20/SPS1-related proline-alanine-rich protein kinase (Homo sapiens) (UniProt Q9UEW8); test: Selectivity interaction (KinomeScan (DiscoverX)) EUB0001079a STK39; details: at 1 µM
[3] = molecular target: Protein kinase C delta type (Homo sapiens) (UniProt Q05655); test: Selectivity interaction (Kinase panel (Z-LYTE Assay)) EUB0001632a PRKCD; details: at 10 µM
[4] = molecular target: Cyclin-dependent kinase 19 (Homo sapiens) (UniProt Q9BWU1); test: Selectivity interaction (KinomeScan (DiscoverX)) EUB0001049a CDK19; details: at 1 µM
[5] = molecular target: Serine/threonine-protein kinase OSR1 (Homo sapiens) (UniProt O95747); test: Selectivity interaction (Kinase panel (DSF assay)) EUB0001558a OXSR1
[6] = molecular target: T1, Cytoplasmic tyrosine-protein kinase BMX (Homo sapiens) (UniProt P51813); test: Selectivity interaction (KinomeScan (DiscoverX)) EUB0000618a BMX; details: at 10 µM
T1 sequence (whole entry): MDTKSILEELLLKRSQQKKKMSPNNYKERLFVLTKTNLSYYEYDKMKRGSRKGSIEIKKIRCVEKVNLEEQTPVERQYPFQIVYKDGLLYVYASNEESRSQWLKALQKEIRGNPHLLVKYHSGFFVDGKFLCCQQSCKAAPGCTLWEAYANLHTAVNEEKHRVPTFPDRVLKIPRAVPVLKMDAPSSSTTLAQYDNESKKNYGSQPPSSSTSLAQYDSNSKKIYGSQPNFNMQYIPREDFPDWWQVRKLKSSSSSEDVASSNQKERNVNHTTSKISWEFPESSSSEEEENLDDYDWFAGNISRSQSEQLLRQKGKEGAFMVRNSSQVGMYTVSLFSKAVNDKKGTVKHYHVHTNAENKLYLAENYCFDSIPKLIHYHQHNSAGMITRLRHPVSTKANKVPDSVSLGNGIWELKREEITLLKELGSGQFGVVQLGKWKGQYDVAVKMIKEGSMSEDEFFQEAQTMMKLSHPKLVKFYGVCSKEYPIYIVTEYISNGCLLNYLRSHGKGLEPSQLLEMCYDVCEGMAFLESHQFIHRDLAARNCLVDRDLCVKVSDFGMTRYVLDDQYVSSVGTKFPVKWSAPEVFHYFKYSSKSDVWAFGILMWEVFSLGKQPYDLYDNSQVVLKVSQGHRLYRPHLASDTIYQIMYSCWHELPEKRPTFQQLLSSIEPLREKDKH

[7] = molecular target: Serine/threonine-protein kinase PLK1 (Homo sapiens, UniProt P53350); test: Selectivity interaction (Kinase panel (Invitrogen)) EUB0000639a PLK1; details: at 200 nM
[8] = molecular target: Ephrin type-A receptor 2 (Homo sapiens) (UniProt P29317); test: Selectivity interaction (ActivX KiNativ screen (kinase selectivity in THP-1 cell lysates)) EUB0000639a EPHA2; format: subcellular; details: lysate
[9] = molecular target: Tyrosine-protein kinase ABL1 (Homo sapiens, UniProt P00519); test: Selectivity interaction (ActivX KiNativ screen (kinase selectivity in THP-1 cell lysates)) EUB0000639a ABL1; format: subcellular; details: lysate, at 0.04 µM
[10] = molecular target: Vascular endothelial growth factor receptor 2 (Homo sapiens, UniProt P35968); test: Selectivity interaction (KinomeScan (DiscoverX)) EUB0000655a KDR; details: at 10 µM
[11] = molecular target: T2, Cyclin-G-associated kinase (Homo sapiens) (UniProt O14976); details: at 10 µM
T2 sequence (whole entry): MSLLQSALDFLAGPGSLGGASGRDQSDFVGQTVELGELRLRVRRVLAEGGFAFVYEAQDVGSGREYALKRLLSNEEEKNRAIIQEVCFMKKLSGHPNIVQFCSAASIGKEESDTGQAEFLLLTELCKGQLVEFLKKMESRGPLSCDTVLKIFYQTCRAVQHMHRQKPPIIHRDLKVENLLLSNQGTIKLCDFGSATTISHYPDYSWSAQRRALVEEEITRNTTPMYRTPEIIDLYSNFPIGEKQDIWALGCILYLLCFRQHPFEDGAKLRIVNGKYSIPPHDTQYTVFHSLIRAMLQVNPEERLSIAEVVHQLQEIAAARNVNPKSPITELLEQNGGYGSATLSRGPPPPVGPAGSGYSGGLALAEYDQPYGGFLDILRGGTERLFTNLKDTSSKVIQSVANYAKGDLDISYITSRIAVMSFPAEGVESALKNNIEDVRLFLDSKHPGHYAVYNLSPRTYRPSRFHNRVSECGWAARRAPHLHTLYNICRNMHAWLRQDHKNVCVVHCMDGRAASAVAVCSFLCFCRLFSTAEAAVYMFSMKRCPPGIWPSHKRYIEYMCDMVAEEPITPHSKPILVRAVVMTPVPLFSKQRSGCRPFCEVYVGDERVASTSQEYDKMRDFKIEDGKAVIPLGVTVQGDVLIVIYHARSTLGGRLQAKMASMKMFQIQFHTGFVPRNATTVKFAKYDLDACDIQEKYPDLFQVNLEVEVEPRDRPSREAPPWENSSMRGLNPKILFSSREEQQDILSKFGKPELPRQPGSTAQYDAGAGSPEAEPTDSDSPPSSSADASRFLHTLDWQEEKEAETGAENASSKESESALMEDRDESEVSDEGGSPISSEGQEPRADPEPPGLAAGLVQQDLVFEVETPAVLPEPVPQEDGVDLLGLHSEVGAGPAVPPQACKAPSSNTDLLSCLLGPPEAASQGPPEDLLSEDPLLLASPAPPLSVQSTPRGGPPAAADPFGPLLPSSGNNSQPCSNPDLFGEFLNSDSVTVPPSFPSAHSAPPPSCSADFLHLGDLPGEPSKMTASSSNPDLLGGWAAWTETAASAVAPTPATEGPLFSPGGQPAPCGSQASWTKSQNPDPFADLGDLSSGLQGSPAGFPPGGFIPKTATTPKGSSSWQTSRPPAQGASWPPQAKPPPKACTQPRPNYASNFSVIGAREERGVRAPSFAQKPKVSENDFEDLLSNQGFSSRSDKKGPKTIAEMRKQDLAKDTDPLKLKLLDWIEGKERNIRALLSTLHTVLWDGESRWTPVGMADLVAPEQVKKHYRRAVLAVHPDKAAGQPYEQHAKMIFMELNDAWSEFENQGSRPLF

[12] = molecular target: Ribosomal protein S6 kinase alpha-5 (Homo sapiens) (UniProt O75582); test: Selectivity interaction (KinomeScan (DiscoverX)) EUB0000092b RPS6KA5; details: at 10 µM
[13] = molecular target: Dual specificity protein kinase CLK3 (Homo sapiens, UniProt P49761); test: Selectivity interaction (Ambit KINOMEscan and KiNATiv profiling in Jurkat cells) EUB0000090b CLK3; format: cell-based; details: at 1 µM
[14] = molecular target: Receptor tyrosine-protein kinase erbB-4 (Homo sapiens, UniProt Q15303); test: Selectivity interaction (Ambit KINOMEscan and KiNATiv profiling in Jurkat cells) EUB0000090b ERBB4; format: cell-based; details: at 1 µM

Sequence of Ephrin type-A receptor 2 (Homo sapiens) (P29317 whole entry): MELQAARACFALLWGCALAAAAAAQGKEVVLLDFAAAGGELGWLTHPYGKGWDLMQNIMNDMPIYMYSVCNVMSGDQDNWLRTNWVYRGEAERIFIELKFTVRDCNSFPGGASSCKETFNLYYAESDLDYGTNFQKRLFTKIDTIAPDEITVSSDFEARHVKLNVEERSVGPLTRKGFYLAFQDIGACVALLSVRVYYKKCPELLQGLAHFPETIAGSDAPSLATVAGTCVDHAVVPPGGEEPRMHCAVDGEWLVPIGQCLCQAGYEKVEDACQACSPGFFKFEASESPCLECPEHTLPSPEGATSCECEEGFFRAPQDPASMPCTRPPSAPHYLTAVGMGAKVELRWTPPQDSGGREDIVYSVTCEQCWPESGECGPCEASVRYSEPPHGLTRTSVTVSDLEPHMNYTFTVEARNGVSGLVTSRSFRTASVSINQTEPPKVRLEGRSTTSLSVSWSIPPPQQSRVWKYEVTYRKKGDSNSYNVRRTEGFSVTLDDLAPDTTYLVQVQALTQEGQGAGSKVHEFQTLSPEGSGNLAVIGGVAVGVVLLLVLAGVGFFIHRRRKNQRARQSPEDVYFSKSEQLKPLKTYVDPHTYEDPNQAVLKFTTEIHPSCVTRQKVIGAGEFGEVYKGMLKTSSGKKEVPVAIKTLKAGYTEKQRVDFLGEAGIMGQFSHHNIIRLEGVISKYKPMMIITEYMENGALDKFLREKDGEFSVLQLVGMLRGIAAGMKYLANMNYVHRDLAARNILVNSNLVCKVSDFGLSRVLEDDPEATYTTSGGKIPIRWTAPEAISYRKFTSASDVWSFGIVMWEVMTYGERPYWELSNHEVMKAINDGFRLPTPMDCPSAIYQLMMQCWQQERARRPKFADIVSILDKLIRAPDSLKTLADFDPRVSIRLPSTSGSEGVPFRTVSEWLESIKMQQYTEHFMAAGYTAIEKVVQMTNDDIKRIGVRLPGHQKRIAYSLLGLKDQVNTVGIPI
Sequence of Vascular endothelial growth factor receptor 2 (P35968 whole entry): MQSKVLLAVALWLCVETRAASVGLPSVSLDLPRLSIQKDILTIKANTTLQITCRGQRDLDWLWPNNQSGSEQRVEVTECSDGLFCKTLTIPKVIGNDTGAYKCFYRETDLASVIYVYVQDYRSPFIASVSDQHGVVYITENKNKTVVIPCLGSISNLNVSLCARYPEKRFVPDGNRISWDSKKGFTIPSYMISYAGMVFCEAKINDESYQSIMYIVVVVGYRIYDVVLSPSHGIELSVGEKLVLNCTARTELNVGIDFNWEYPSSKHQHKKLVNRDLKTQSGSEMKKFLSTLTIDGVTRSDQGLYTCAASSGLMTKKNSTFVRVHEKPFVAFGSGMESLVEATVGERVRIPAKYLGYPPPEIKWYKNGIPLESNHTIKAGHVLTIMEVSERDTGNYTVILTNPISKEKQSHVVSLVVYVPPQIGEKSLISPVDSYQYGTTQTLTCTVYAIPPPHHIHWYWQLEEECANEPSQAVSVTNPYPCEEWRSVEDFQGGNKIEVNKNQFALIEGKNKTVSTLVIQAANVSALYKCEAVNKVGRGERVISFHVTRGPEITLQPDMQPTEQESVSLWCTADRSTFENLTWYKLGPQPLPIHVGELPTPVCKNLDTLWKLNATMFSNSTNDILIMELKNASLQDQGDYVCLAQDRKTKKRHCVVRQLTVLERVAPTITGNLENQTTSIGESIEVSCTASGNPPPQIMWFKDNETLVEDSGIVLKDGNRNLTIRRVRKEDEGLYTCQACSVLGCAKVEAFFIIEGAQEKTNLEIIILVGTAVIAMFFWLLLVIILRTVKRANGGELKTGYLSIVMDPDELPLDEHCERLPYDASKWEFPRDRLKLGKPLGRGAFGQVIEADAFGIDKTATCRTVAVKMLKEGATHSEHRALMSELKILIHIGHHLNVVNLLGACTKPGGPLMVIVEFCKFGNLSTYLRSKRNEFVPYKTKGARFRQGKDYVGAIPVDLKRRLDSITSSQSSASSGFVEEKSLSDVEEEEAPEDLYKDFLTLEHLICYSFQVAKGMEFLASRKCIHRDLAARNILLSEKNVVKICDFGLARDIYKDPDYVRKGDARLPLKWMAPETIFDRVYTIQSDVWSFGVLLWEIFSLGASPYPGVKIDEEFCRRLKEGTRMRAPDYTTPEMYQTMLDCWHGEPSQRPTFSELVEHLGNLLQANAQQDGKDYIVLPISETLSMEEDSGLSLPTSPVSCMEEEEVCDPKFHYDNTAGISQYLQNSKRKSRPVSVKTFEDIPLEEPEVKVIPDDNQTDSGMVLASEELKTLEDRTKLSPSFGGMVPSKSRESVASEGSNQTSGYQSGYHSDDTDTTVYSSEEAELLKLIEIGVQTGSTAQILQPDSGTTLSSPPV
Sequence of Tyrosine-protein kinase ABL1 (P00519 whole entry): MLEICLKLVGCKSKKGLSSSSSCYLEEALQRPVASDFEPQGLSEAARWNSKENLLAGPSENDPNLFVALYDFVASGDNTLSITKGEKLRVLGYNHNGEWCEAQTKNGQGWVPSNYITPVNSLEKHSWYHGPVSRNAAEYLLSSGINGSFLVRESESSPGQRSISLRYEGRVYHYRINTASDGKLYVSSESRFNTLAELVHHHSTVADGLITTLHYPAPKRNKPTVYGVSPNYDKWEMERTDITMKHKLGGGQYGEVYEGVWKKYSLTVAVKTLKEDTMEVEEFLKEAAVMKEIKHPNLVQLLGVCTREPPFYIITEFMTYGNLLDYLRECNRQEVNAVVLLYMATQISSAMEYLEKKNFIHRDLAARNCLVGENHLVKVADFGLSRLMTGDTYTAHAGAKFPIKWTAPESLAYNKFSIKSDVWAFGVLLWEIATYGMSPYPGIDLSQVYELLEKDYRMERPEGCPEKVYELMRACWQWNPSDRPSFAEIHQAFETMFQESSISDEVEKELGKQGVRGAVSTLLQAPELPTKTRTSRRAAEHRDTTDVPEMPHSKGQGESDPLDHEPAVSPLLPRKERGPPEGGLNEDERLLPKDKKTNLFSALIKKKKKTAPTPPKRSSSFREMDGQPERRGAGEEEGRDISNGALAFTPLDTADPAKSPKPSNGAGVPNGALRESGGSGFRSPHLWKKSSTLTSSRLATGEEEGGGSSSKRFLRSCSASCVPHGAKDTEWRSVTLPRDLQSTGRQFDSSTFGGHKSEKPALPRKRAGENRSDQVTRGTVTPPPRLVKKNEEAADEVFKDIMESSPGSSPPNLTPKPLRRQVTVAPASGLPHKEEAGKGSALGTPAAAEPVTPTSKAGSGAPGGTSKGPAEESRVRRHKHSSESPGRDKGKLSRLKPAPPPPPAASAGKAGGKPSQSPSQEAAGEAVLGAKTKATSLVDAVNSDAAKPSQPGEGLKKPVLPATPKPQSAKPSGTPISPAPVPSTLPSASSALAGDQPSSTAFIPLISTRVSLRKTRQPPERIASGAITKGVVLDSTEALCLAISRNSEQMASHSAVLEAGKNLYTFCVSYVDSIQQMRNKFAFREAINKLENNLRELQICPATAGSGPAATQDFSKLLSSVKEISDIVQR
Sequence of Cyclin-dependent kinase 19 (Homo sapiens) (Q9BWU1 whole entry): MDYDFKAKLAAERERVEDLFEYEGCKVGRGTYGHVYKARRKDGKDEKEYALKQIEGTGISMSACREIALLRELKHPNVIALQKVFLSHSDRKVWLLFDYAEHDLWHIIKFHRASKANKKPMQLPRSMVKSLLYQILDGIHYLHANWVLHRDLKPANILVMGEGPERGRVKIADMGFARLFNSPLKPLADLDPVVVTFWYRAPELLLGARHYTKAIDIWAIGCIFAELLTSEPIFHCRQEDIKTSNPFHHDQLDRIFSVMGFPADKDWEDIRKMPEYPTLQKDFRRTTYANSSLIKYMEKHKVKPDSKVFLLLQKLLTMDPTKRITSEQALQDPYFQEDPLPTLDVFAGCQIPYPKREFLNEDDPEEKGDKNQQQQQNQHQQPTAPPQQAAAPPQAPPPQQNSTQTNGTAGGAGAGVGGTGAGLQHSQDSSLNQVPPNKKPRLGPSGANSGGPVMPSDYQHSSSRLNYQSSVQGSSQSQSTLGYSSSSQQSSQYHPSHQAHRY
Sequence of Dual specificity protein kinase CLK3 (P49761 whole entry, looked up): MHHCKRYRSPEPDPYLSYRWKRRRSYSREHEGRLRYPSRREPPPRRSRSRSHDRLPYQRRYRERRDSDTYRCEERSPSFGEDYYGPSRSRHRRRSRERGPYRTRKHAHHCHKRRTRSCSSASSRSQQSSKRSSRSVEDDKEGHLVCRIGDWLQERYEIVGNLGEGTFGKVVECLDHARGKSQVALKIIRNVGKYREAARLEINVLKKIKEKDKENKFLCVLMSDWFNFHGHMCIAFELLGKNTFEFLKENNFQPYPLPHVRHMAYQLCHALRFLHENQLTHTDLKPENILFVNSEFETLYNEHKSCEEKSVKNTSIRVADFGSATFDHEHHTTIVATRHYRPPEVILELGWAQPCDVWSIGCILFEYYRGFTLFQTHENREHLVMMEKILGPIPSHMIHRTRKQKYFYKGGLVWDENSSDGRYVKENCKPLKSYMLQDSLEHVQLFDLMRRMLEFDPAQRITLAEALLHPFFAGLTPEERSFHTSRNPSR
Sequence of Serine/threonine-protein kinase OSR1 (Homo sapiens) (O95747 2-527 limits assumed): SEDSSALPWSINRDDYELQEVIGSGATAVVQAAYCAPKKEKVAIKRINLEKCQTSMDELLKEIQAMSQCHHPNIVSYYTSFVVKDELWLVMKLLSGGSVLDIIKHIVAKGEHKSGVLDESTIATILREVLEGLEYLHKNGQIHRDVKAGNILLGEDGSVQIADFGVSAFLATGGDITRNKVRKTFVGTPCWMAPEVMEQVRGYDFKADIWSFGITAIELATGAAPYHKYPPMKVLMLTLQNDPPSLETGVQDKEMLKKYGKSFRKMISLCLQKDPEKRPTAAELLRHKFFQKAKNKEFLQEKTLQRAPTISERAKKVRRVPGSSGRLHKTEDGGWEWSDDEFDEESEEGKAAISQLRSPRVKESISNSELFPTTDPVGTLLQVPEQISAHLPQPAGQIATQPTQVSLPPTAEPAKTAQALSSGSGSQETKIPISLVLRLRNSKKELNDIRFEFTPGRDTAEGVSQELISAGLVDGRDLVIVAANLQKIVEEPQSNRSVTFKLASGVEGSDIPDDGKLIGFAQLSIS

## COCC(=O)NC/C=C/c1ccc2ncnc(Nc3ccc(Oc4ccc(C)nc4)c(C)c3)c2c1 [CP-724714]
[1]
  % of control: 88%

## Nc1cnc(N2CCc3cc(S(=O)(=O)Nc4c(F)cc(Cl)cc4F)cc(N4CCCC4=O)c32)nc1 [TP-020n]
[2]
  % of control: 100%

## Cn1cc(-n2cnc3c(NCc4nc5cc(Cl)c(Cl)cc5[nH]4)nc(N4CCOCC4)nc32)cn1
[3]
  % of control: -0.676%

## COc1cc(Nc2nc(C)cc(-c3cnn4nc(OC)ccc34)n2)cc(C(F)(F)F)c1
[4]
  % of control: 91%

## CC(C)(O)[C@H](F)CN1Cc2cc(NC(=O)c3cnn4cccnc34)c(N3CCOCC3)cc2C1=O
[5]
  dTM: -0.5 K

## O[C@H]1CC[C@H](Nc2ncc3nc(Nc4c(F)cc(F)cc4F)n([C@H]4CCOC4)c3n2)CC1
[6]
  % of control: 100%

## CC[C@@H]1[C@H](F)C(=O)N[C@@H]1COc1nccc2cc(C(N)=O)c(OC)cc12 [ZIMLOVISERTIB]
[7]
  % of inhibition: 4.41%
[8]; at 0.01 µM
  % of inhibition: -12.3%
[8]; at 0.04 µM
  % of inhibition: -11.2%
[8]; at 0.2 µM
  % of inhibition: 2.2%
[8]; at 1 µM
  % of inhibition: -12.7%
[8]; at 5 µM
  % of inhibition: 14.3%
[9]
  % of inhibition: -16.4%

## CN(C)CCOc1ccc(-c2nc(-c3ccncc3)c(-c3ccc4c(c3)CC/C4=N\O)[nH]2)cc1
[10]
  % of control: 100%

## CCN(CC)CCCCNc1ncc2cc(-c3cc(OC)cc(OC)c3)c(NC(=O)NC(C)(C)C)nc2n1
[11]
  % of control: 100%

## CCC(=O)N1CCN(c2ccc(-n3c(=O)ccc4cnc5ccc(-c6cnc7ccccc7c6)cc5c43)cc2C(F)(F)F)CC1
[12]
  % of control: 100%

## CN(C)C/C=C/C(=O)Nc1ccc(C(=O)N2CCCC(Nc3ncc(Cl)c(-c4c[nH]c5ccccc45)n3)C2)cc1 (stereo not drawn)
[13]
  % of control: 81%
[14]
  % of control: 96%
